Source: ChEMBL document CHEMBL3885881, “DrugMatrix”

Species on record: Rattus norvegicus
Format: toxicity, organism-based, Sprague-Dawley
Conditions: in vivo, ip, route intraperitoneal, vehicle 100 % SALINE; for ABSOLUTE EOSINOPHIL / ABSOLUTE LYMPHOCYTE / ABSOLUTE MONOCYTE / ABSOLUTE SEGMENTED NEUTROPHIL / BASOPHIL / EOSINOPHIL / ERYTHROCYTE COUNT / HEMATOCRIT / HEMOGLOBIN / LEUKOCYTE COUNT / LYMPHOCYTE / MEAN CORPUSCULAR HEMOGLOBIN / MEAN CORPUSCULAR HEMOGLOBIN CONCENTRATION / MEAN CORPUSCULAR VOLUME / MONOCYTE / NEUTROPHIL / NUCLEATED RED BLOOD CELLS / PLATELET COUNT: tissue Blood; for ALANINE AMINOTRANSFERASE / ALBUMIN / ALKALINE PHOSPHATASE / ASPARTATE AMINOTRANSFERASE / BLOOD UREA NITROGEN / CARBON DIOXIDE / CHLORIDE / CHOLESTEROL / CREATINE PHOSPHOKINASE / CREATININE / GLUCOSE / LACTATE DEHYDROGENASE / LIPASE / PHOSPHORUS / POTASSIUM / SODIUM / TOTAL BILIRUBIN / TOTAL PROTEIN / URIC ACID: tissue Plasma
[1] = 0 mg/kg, 6 h, vehicle control, dose level Control, time 0.25 day
[2] = 0 mg/kg, 24 h, vehicle control, dose level Control, time 1 day
[3] = 16 mg/kg, 6 h, dose level Low, time 0.25 day

Description: DrugMatrix - Regimen: Single

C=CCO [ALLYL ALCOHOL]
ABSOLUTE EOSINOPHIL [1]: 63 CELLS/uL | ABSOLUTE LYMPHOCYTE [1]: 12886.67 CELLS/uL | ABSOLUTE MONOCYTE [1]: 302.5 CELLS/uL | ABSOLUTE SEGMENTED NEUTROPHIL [1]: 2997.83 CELLS/uL | BASOPHIL [1]: 0% | EOSINOPHIL [1]: 0.33% | ERYTHROCYTE COUNT [1]: 5.45 x10E6/uL | HEMATOCRIT [1]: 34.93% | HEMOGLOBIN [1]: 13.88 G/DL | LEUKOCYTE COUNT [1]: 16.25 x10E3/uL | LYMPHOCYTE [1]: 79.17% | MEAN CORPUSCULAR HEMOGLOBIN [1]: 25.48 pg | MEAN CORPUSCULAR HEMOGLOBIN CONCENTRATION [1]: 39.77 G/DL | MEAN CORPUSCULAR VOLUME [1]: 64.13 fL | MONOCYTE [1]: 1.83% | NEUTROPHIL [1]: 18.67% | NUCLEATED RED BLOOD CELLS [1]: 0 /100WBC | PLATELET COUNT [1]: 1184.67 x10E3/uL | ALANINE AMINOTRANSFERASE [1]: 35 u/L | ALBUMIN [1]: 4.25 G/DL | ALKALINE PHOSPHATASE [1]: 281.83 u/L | ASPARTATE AMINOTRANSFERASE [1]: 79.5 u/L | BLOOD UREA NITROGEN [1]: 11.67 mg/dL | CARBON DIOXIDE [1]: 27 mmol/L | CHLORIDE [1]: 100.33 MEQ/L | CHOLESTEROL [1]: 60.67 mg/dL | CREATINE PHOSPHOKINASE [1]: 275.5 u/L | CREATININE [1]: 0.13 mg/dL | GLUCOSE [1]: 162.5 mg/dL | LACTATE DEHYDROGENASE [1]: 258.83 u/L | LIPASE [1]: 9.33 u/L | PHOSPHORUS [1]: 11.42 mg/dL | POTASSIUM [1]: 6.16 MEQ/L | SODIUM [1]: 145.08 MEQ/L | TOTAL BILIRUBIN [1]: 0.18 mg/dL | TOTAL PROTEIN [1]: 5.73 G/DL | URIC ACID [1]: 1.58 mg/dL | ABSOLUTE EOSINOPHIL [2]: 18.5 CELLS/uL | ABSOLUTE LYMPHOCYTE [2]: 12859.83 CELLS/uL | ABSOLUTE MONOCYTE [2]: 190.83 CELLS/uL | ABSOLUTE SEGMENTED NEUTROPHIL [2]: 1230.83 CELLS/uL | BASOPHIL [2]: 0% | EOSINOPHIL [2]: 0.17% | ERYTHROCYTE COUNT [2]: 5.2 x10E6/uL | HEMATOCRIT [2]: 33.25% | HEMOGLOBIN [2]: 13.37 G/DL | LEUKOCYTE COUNT [2]: 14.3 x10E3/uL | LYMPHOCYTE [2]: 89.83% | MEAN CORPUSCULAR HEMOGLOBIN [2]: 25.73 pg | MEAN CORPUSCULAR HEMOGLOBIN CONCENTRATION [2]: 40.25 G/DL | MEAN CORPUSCULAR VOLUME [2]: 64 fL | MONOCYTE [2]: 1.33% | NEUTROPHIL [2]: 8.67% | NUCLEATED RED BLOOD CELLS [2]: 0 /100WBC | PLATELET COUNT [2]: 1075.5 x10E3/uL | ALANINE AMINOTRANSFERASE [2]: 54.17 u/L | ALBUMIN [2]: 4.25 G/DL | ALKALINE PHOSPHATASE [2]: 280.67 u/L | ASPARTATE AMINOTRANSFERASE [2]: 84.67 u/L | BLOOD UREA NITROGEN [2]: 13.33 mg/dL | CARBON DIOXIDE [2]: 26.33 mmol/L | CHLORIDE [2]: 99.67 MEQ/L | CHOLESTEROL [2]: 72 mg/dL | CREATINE PHOSPHOKINASE [2]: 620 u/L | CREATININE [2]: 0.17 mg/dL | GLUCOSE [2]: 169.17 mg/dL | LACTATE DEHYDROGENASE [2]: 189.17 u/L | LIPASE [2]: 9.67 u/L | PHOSPHORUS [2]: 10.57 mg/dL | POTASSIUM [2]: 5.16 MEQ/L | SODIUM [2]: 142.2 MEQ/L | TOTAL BILIRUBIN [2]: 0.18 mg/dL | TOTAL PROTEIN [2]: 5.78 G/DL | URIC ACID [2]: 1.25 mg/dL | ABSOLUTE EOSINOPHIL [3]: 48.67 CELLS/uL | ABSOLUTE LYMPHOCYTE [3]: 11033.33 CELLS/uL | ABSOLUTE MONOCYTE [3]: 230.5 CELLS/uL | ABSOLUTE SEGMENTED NEUTROPHIL [3]: 2270.83 CELLS/uL | BASOPHIL [3]: 0% | EOSINOPHIL [3]: 0.33% | ERYTHROCYTE COUNT [3]: 5.38 x10E6/uL | HEMATOCRIT [3]: 34.4% | HEMOGLOBIN [3]: 13.45 G/DL | LEUKOCYTE COUNT [3]: 13.58 x10E3/uL | LYMPHOCYTE [3]: 81.17% | MEAN CORPUSCULAR HEMOGLOBIN [3]: 25.12 pg | MEAN CORPUSCULAR HEMOGLOBIN CONCENTRATION [3]: 39.12 G/DL | MEAN CORPUSCULAR VOLUME [3]: 64.18 fL | MONOCYTE [3]: 1.67% | NEUTROPHIL [3]: 16.83% | NUCLEATED RED BLOOD CELLS [3]: 0 /100WBC | PLATELET COUNT [3]: 997.5 x10E3/uL | ALANINE AMINOTRANSFERASE [3]: 66.83 u/L | ALBUMIN [3]: 4.27 G/DL | ALKALINE PHOSPHATASE [3]: 267.67 u/L | ASPARTATE AMINOTRANSFERASE [3]: 90 u/L | BLOOD UREA NITROGEN [3]: 9.33 mg/dL | CARBON DIOXIDE [3]: 28.5 mmol/L | CHLORIDE [3]: 100.17 MEQ/L | CHOLESTEROL [3]: 68 mg/dL | CREATINE PHOSPHOKINASE [3]: 295 u/L | CREATININE [3]: 0.14 mg/dL | GLUCOSE [3]: 153.5 mg/dL | LACTATE DEHYDROGENASE [3]: 198.83 u/L | LIPASE [3]: 11.83 u/L | PHOSPHORUS [3]: 10.27 mg/dL | POTASSIUM [3]: 5.27 MEQ/L | SODIUM [3]: 144.05 MEQ/L | TOTAL BILIRUBIN [3]: 0.1 mg/dL | TOTAL PROTEIN [3]: 5.6 G/DL | URIC ACID [3]: 1.15 mg/dL
